# Experimental data from patent US9249208B2, “Citrulline peptides derived from fibrin and recognized by rheumatoid arthritis specific autoantibodies, and the use thereof” (Biomerieux, priority 2004, dated 2016).
# Where no end group is shown, it is not given here. [ ]: non-standard residue; d: D form. Cit = NC(=O)NCCC[C@H](N)C(=O)O
# Tests used:
# [1] = tested on: anti-citrullinated protein autoantibodies (ACPAs); experiment: ELISA of reactive citrullinated fibrin peptides with the 20 individual sera of mixtures A and B; assay type: binding, human; details: for Number of positive sera: sera with delta OD not <0.25 out of sera tested (20, or 10 of mixture A only); for delta OD: best coating buffer per peptide
# Procedure: The 14 peptides carrying the most reactive epitopes (delta OD≧0.5 for one or other of the mixtures of serum (A and B) with at least one of the three coating buffers) were tested independently with the 20 sera constituting the mixtures A and B, in order to evaluate the reactivity profile of each of these peptides. The tests were carried out by ELISA under the same conditions as in Example 2 above, with the exception that, for each pair of peptides, the coating buffer selected was that that had made it possible to obtain the strongest reactivity with respect to this peptide during the screening (the buffer for which the sum of the delta ODs obtained respectively for the serum mixtures A and B was at a maximum). […] Thus, for each serum, the dilution that made it possible to obtain an OD of 1 by ELISA on deiminated fibrinogen was selected (Nogueira L, 2002, mentioned above). The dilutions ranged from 1/20 to 1/2700.
# [2] = tested on: anti-citrullinated protein autoantibodies (ACPAs); experiment: ELISA of citrullinated/native fibrin peptide pairs with serum mixtures A and B and control mixture (delta OD); assay type: binding, human; details: mean of two determinations
# Procedure: Each pair of peptides (citrullinated and noncitrullinated) was assayed by ELISA with a mixture, in equal parts, of 10 sera having no ACPAs (control mixture) and with the 2 mixtures A and B described in Example 1.
# Each pair of peptides (native and citrullinated form) was tested on the same plate and a pair of control peptides—citrullinated “filaggrin” peptide cfc6 and its corresponding native peptide cf0 (Schellekens G A, 1998, mentioned above)—was included in each experiment, which made it possible to calculate an inter-assay coefficient of variation and to perform corrections.
# All the incubations were carried out for 1 h at 4° C. and were followed by washing in PBS-0.1% Tween. The peroxidase activity was visualized with a solution of ortho-phenylenediamine (2 mg/ml—Sigma) in hydrogen peroxide (0.03%—Sigma). The reaction was stopped after 5 minutes by adding 4M sulfuric acid, and the optical density (OD) at 492 nm was measured by virtue of an automatic spectrophotometer (Multiskan, Thermo Labsystems).
# The specific reactivity of the mixtures of sera with regard to the citrullinated peptides corresponded to the difference between the OD obtained with the citrullinated peptide and that obtained with the corresponding native peptide (delta OD). The results correspond to the mean of two determinations. Any citrullinated peptide making it possible to obtain a delta OD of greater than 0.250 for at least one of the two mixtures A and B after coating in at least one of the three buffers, was considered to be reactive.
# [3] = Mixture A of sera 1/50, coating buffer PBS pH 7.4
# [4] = Mixture A of sera 1/50, coating buffer acetate pH 5.0
# [5] = Mixture A of sera 1/50, coating buffer carbonate pH 9.0
# [6] = Mixture B of sera 1/50, coating buffer PBS pH 7.4
# [7] = Mixture B of sera 1/50, coating buffer acetate pH 5.0
# [8] = Mixture B of sera 1/50, coating buffer carbonate pH 9.0
Substance,Number of positive sera [1],"delta OD ([1]; serum 97.1795, dilution 1/50)","delta OD (citrullinated minus native peptide, 492 nm) [2, 3]","delta OD (citrullinated minus native peptide, 492 nm) [2, 4]","delta OD (citrullinated minus native peptide, 492 nm) [2, 5]","delta OD (citrullinated minus native peptide, 492 nm) [2, 6]","delta OD (citrullinated minus native peptide, 492 nm) [2, 7]","delta OD (citrullinated minus native peptide, 492 nm) [2, 8]","delta OD ([1]; serum 97.0311, dilution 1/200)","delta OD ([1]; serum 97.0794, dilution 1/50)","delta OD ([1]; serum 97.1474, dilution 1/20)",further results
"α588-602Cit591: citrullinated synthetic peptide, fibrin α-chain residues 588-602 (second series) (SYN[Cit]GDSTFESKSYK)",2/20,0.79,0.16,0.05,0.36,0.33,0.06,0.67,,,,"delta OD ([1]; serum 97.0169, dilution 1/400): 1.34"
"α171-185Cit178,181: citrullinated synthetic peptide, fibrin α-chain residues 171-185; fits SEQ ID NO: 4 VDIDIKIX1SCX2GSCS (VDIDIKI[Cit]SC[Cit]GSCS; cysteine pairing not given here)",9/20,0.57,0.29,0.15,0.75,0.21,0.08,0.47,1.95,2.09,1.08,"delta OD ([1]; serum 97.0459, dilution 1/60): 0.29; delta OD ([1]; serum 97.0468, dilution 1/700): 0.42; delta OD ([1]; serum 97.0524, dilution 1/200): 0.59; delta OD ([1]; serum 97.0907, dilution 1/300): 0.44; delta OD ([1]; serum 97.1548, dilution 1/60): 0.71"
"α36-50Cit38,42: citrullinated synthetic peptide, fibrin α-chain residues 36-50; fits SEQ ID NO: 2 GPX1VVEX2HQSACKDS (GP[Cit]VVE[Cit]HQSACKDS)",12/20,2.29,2.69,4.00,3.43,2.65,4.27,2.64,0.71,3.43,1.93,"delta OD ([1]; serum 95.0256, dilution 1/35): 2.35; delta OD ([1]; serum 97.0323, dilution 1/120): 1.87; delta OD ([1]; serum 97.0388, dilution 1/50): 3.32; delta OD ([1]; serum 97.0459, dilution 1/60): 3.55; delta OD ([1]; serum 97.0524, dilution 1/200): 3.39; delta OD ([1]; serum 97.0530, dilution 1/50): 2.97; delta OD ([1]; serum 97.1436, dilution 1/150): 3.30; delta OD ([1]; serum 97.1715, dilution 1/300): 3.50"
"β210-224Cit224: citrullinated synthetic peptide, fibrin β-chain residues 210-224 (QKLESDVSAQMEYC[Cit])",6/20,0.49,0.29,0.25,1.14,0.60,0.00,1.56,0.46,,,"delta OD ([1]; serum 97.0323, dilution 1/120): 0.36; delta OD ([1]; serum 97.0796, dilution 1/500): 0.67; delta OD ([1]; serum 97.0907, dilution 1/300): 0.33; delta OD ([1]; serum 97.1210, dilution 1/300): 0.72"
"α246-260Cit258: citrullinated synthetic peptide, fibrin α-chain residues 246-260 (PEWKALTDMPQM[Cit]ME)",,,0.00,0.04,0.00,0.25,0.27,0.33,,,,
"α501-515Cit510,512: citrullinated synthetic peptide, fibrin α-chain residues 501-515; fits SEQ ID NO: 3 SGIGTLDGFX1HX2HPD (SGIGTLDGF[Cit]H[Cit]HPD)",9/20,,0.92,0.16,0.15,2.60,0.72,0.79,,3.30,,"delta OD ([1]; serum 95.0256, dilution 1/35): 2.37; delta OD ([1]; serum 97.0323, dilution 1/120): 3.23; delta OD ([1]; serum 97.0388, dilution 1/50): 2.88; delta OD ([1]; serum 97.0506, dilution 1/75): 0.44; delta OD ([1]; serum 97.0524, dilution 1/200): 2.85; delta OD ([1]; serum 97.0530, dilution 1/50): 0.69; delta OD ([1]; serum 97.1436, dilution 1/150): 2.80; delta OD ([1]; serum 97.1715, dilution 1/300): 1.79"
"α621-635Cit621,627,630: citrullinated synthetic peptide, fibrin α-chain residues 621-635; fits SEQ ID NO: 12 X1GHAKSX2PVX3GIHTS ([Cit]GHAKS[Cit]PV[Cit]GIHTS)",10/20,,1.57,0.25,1.17,1.51,0.18,1.20,0.37,,0.59,"delta OD ([1]; serum 97.0169, dilution 1/400): 0.80; delta OD ([1]; serum 97.0244, dilution 1/2700): 0.50; delta OD ([1]; serum 97.0388, dilution 1/50): 2.71; delta OD ([1]; serum 97.0468, dilution 1/700): 0.81; delta OD ([1]; serum 97.0796, dilution 1/500): 0.69; delta OD ([1]; serum 97.0907, dilution 1/300): 1.04; delta OD ([1]; serum 97.1210, dilution 1/300): 0.37; delta OD ([1]; serum 97.1548, dilution 1/60): 3.29"
"α561-575Cit573: citrullinated synthetic peptide, fibrin α-chain residues 561-575 (SSHHPGIAEFPS[Cit]GK)",5/20,,0.30,0.05,0.01,0.52,0.14,0.17,0.30,1.95,0.71,"delta OD ([1]; serum 97.0459, dilution 1/60): 0.38; delta OD ([1]; serum 97.1548, dilution 1/60): 0.53"
"α396-410Cit404: citrullinated synthetic peptide, fibrin α-chain residues 396-410 (DSPGSGNA[Cit]PNNPDW)",,,0.02,0.04,0.43,0.17,0.15,0.20,,,,
"α366-380Cit367: citrullinated synthetic peptide, fibrin α-chain residues 366-380 (E[Cit]GSAGHWTSESSVS)",,,0.37,0.28,0.26,0.04,0.00,0.08,,,,
"β420-434Cit421: citrullinated synthetic peptide, fibrin β-chain residues 420-434 (P[Cit]KQCSKEDGGGWWY)",,,0.48,0.36,0.44,0.00,0.00,0.00,,,,
